As usually defined, the IC50 is the midpoint of a concentration-inhibition curve.

The text below walks through data of patent publication US20130005760A1, “HETEROCYCLIC COMPOUND HAVING AZOLE GROUP” (Toyama Chemical Co., Ltd., priority 2010, published 2013).

Molecules are shown by their SMILES.

Data set [1] in a line: Single-dose oral toxicity study in mice. The class given is in vivo. The settings on record: male ICR mice, suspension in 0.5% methylcellulose, conditions observed on the next day. As to the method: (§1) The compounds of Examples 2, 4 and 12 were used as test compounds.
10 mL/kg of a test compound suspended in 0.5% methylcellulose was orally administered to male ICR mice (6 week-old, one animal in a group).
On the next day after the administration, the conditions of the mice were observed.

The subject of data set [2] is HIV-1 (JRCSF). Briefly: Anti-HIV activity (Test Example 1-1): MaRBLE cells infected with HIV-1 (JRCSF), compound added 2 h after seeding, luciferase readout after 7 days. The class given is cell-based. The following applies: Human immunodeficiency virus 1, 168 h, 7 days culture, firefly luciferase, virus growth rate, 4 parameter Logistic Model (XLfit 4). As for the experimental part: (§2) This example was carried out by reference to Journal of Clinical Microbiology, 2007, Vol. 45, pages 477 to 487.
(§3) An anti-HIV activity was evaluated using MaRBLE cells obtained by transfection of HPB-M(a) derived from human T-lymphocytes with a luciferase gene of which expressions were regulated by HIV-1 LTR and a CCR5 gene etc.
The MaRBLE cells were suspended in RPMI1640 containing 10% FCS (fetal calf serum) and penicillin/streptomycin. After infected with HIV-1 (JRCSF), the cells were seeded on a 96-well plate (1×10^5 cells/well). As a control group, the same number of uninfected cells were seeded.
After incubating the plate under the condition of 37° C. and 5% CO2 for 2 hours, a fresh culture medium or a culture medium containing an appropriately diluted test compound was added to each well.
After further culturing at 37° C. under 5% CO2 for 7 days, an intracellular luciferase activity was measured using Dual-Glo Luciferase assay system (Promega).
(§4) The virus growth rate was calculated by the following equation.
(§5) Virus growth rate (%)=(A/B)×100
(§6) A=(Firefly luciferase activity in the well with the compound)−(Firefly luciferase activity of uninfected cells)
(§7) B=(Firefly luciferase activity in the well without the compound)−(Firefly luciferase activity of uninfected cells)
The IC50 of the compound was calculated by applying virus growth rates of various concentrations to 4 parameter Logistic Model of curve-fitting software XLfit 4.

The test system of data set [3] is bone marrow polychromatic erythrocytes. Briefly: In vivo micronucleus study in mice. The settings on record: male ICR mice, oral twice at 24 hour interval, bone marrow 24 hours after final administration, highest dose group with all animals alive. As to the method:
as §1
A test compound suspended in 0.5% methylcellulose was orally administered to male ICR mice (8 week-old, three animals in a group) twice at a 24 hour interval. To a control group, 0.5% methylcellulose was orally administered in a similar manner.
At 24 hours after the final administration, the mice in the highest dose group in which all the animals were alive were killed by exsanguination under ether anesthesia, and one thigh bone was collected from each animal. After cutting the collected thigh bone at the proximal end, bone marrow cells were washed out with fetal calf serum to a centrifuge tube using a disposable syringe, and after centrifugation (1000 rpm, 5 minutes, HITACHI 05PR-22), a part of the supernatant was discarded to obtain a suspension of bone marrow cells. This suspension was smeared on a slide glass, and then dried followed by methanol fixation to prepare a sample.
The sample was observed by acridine orange staining.
The sample of which frequency of MNPCE exceeds 0.5% was judged positive.
Frequency of MNPCE (%)=(MNPCE number/Observed PCE number)×100

Data set [4] can be described thus: Pharmacokinetic study in mice (oral administration). The class given is in vivo. The following applies: mouse, serum, 25 mg/kg, male ICR mice, suspension in 0.5% methylcellulose 2.5 mg/mL at 10 mL/kg, 12 hours after administration, HPLC, read-out: serum concentration of the test compound. As to the method:
The compounds of Examples 2, 4, 5, 12 and 16 were used as test compounds.
A test compound suspended in 0.5% methylcellulose (2.5 mg/mL) was orally administered at 10 mL/kg to male ICR mice (6 week-old, three animals in a group). At 12 hours after the administration, the blood of the mice was collected, and the concentrations of the test compound in the serum were measured by HPLC.

Data set [5] relates to HIV-1 (JRCSF). Briefly: Anti-HIV activity (Test Example 1-2): infected MaRBLE cells seeded on plate containing drug solution, luciferase readout after 7 days. In kind it is cell-based. The settings on record: Human immunodeficiency virus 1, 168 h, MaRBLE cells infected with HIV-1 (JRCSF), 7 days culture, firefly luciferase, FORECAST linear regression (Excel). As to the method:
as §2, §3
A plate containing a drug solution was made by dispensing a fresh culture medium or an appropriately diluted test compound to a 96-well plate.
MaRBLE cells were suspended in RPMI1640 containing 10% FCS (fetal calf serum) and penicillin/streptomycin. After infected with HIV-1 (JRCSF), the cells were seeded on the above-described plate containing a drug solution ([…] cells/well). As a control group, the same number of uninfected cells were seeded.
After culturing at 37° C. under 5% CO2 for 7 days, an intracellular luciferase activity was measured using Dual-Glo Luciferase assay system (Promega).
as §4, §5, §6, §7
The IC50 of the compound was calculated by plotting the concentration with the logarithm and by plotting the virus growth rate with a real number, using the FORECAST function (linear regression technique) of Microsoft Office Excel 2003.

In the case of `Cc1noc(C)c1-c1ccc2c(=O)cc(C)n(-c3cc(N)c(F)cc3F)c2c1` [Example 2, 1-(5-amino-2,4-difluorophenyl)-7-(3,5-dimethylisoxazol-4-yl)-2-methyl-1,4-dihydro-4-oxoquinoline], in data set [1], the “dose at which the compound showed good safety (single oral dose)” value (“dose” below) was determined as 2000 mg/kg. Half-maximal inhibition in the data set on HIV-1 (JRCSF) [2] (IC50) was put at 1.4 nM. In addition, the “micronucleus test result (frequency of MNPCE exceeding 0.5% judged positive)” value in data set [3] is reported as “negative”. For the same compound, the concentration at 12 h in data set [4] was no less than 500 ng/mL.

Take `Cc1noc(C)c1-c1ccc2c(=O)cc(C)n(-c3cc(N)c(F)cc3F)c2n1` [Example 4, 1-(5-amino-2,4-difluorophenyl)-7-(3,5-dimethylisoxazol-4-yl)-2-methyl-1,4-dihydro-4-oxo-1,8-naphthyridine]: the “dose” value in data set [1] is 750 mg/kg. In the data set with HIV-1 (JRCSF) [2], this compound gave an IC50 of 0.38 nM. Moreover, the “micronucleus test result (frequency of MNPCE exceeding 0.5% judged positive)” value in data set [3] is reported as “negative”. In addition, the concentration at 12 h in data set [4] was no less than 500 ng/mL.

`Cc1noc(C)c1-c1ccc2c(=O)cc(C)n(-c3cc(N)c(F)c(F)c3F)c2n1` [Example 12, 1-(5-amino-2,3,4-trifluorophenyl)-7-(3,5-dimethylisoxazol-4-yl)-2-methyl-1,4-dihydro-4-oxo-1,8-naphthyridine]: the “dose” value in data set [1] was determined as 1000 mg/kg. Further, the IC50 in the data set with HIV-1 (JRCSF) [5] stood at 1.9 nM. Moreover, in data set [3], the “micronucleus test result (frequency of MNPCE exceeding 0.5% judged positive)” value was “negative”. Moreover, the concentration at 12 h in data set [4] was no less than 500 ng/mL.
